Among the data in US20200071310A1, “N-ARYL PYRAZOLES AS NRF2 REGULATORS” (GLAXOSMITHKLINE INTELLECTUAL PROPERTY DEVELOPMENT LIMITED, priority 2016, published 2020) are EC50 values, retold here.

For this assay, the target named is T1, full length Keap1 protein / full length NRF2 protein (Homo sapiens, UniProt Q14145).
T1 construct: full length NRF2 protein and full length Keap1 protein (Keap1 exists a dimer) are used; His
The experiment in a line: NRF2-Keap1 TR-FRET Low Protein Assay. It is filed as binding. The text has this:
In the NRF2-Keap1 TR-FRET (time-resolved fluorescence resonance energy transfer) low protein assay, full length NRF2 protein and full length Keap1 protein (Keap1 exists a dimer) are used. The assay detects a compound's ability to displace the binding of Keap1 FlagHis with biotinylated Avi-NRF2 protein. Biotin-NRF2 binds to streptavidin-europium (a component of the detection mix) and Keap1 FlagHis is recognized by anti-Flag APC (allophycocyanin) antibody (also a component of the detection mix). If binding occurs between the two proteins, there will be an energy transfer from the Eu+3 (donor) at 615 nm to the APC (acceptor) at 665 nm. A potential NRF2 inhibitor will cause a reduction in the TR-FRET signal by interfering with the binding of Keap1 to NRF2.
Ten nanoliters of 100× compound dose response curves (serial 3-fold dilutions) in DMSO were stamped using an Echo liquid handling system (Labcyte) into 384-well, low volume, black assay plates (Greiner, #784076), with DMSO in columns 6 and 18. An additional 90 nl DMSO was added to each well, to bring the total volume to 100 nl per well. The top concentration of compound was located in columns 1 and 13, with the serial dilutions going across the row. All reagents were diluted in assay buffer (50 mM Tris, pH 8.0, 5 mM MgCl2, 100 mM NaCl, 0.005% BSA, 1 mM DTT, and 2 mM CHAPS. The BSA, DTT, and CHAPS were added to the assay buffer on the day of assay. Using a Multidrop Combi (Thermo Electron Corporation) equipped with a metal tip dispenser, 5 ul of 1.25 nM Keap1 FlagHis protein was added to all wells of the compound plate, with the exception of the wells in column 18. Wells in column 18 received 5 ul of assay buffer instead. Plates were centrifuged at 500 rpm for 1 minute, covered with a plate lid, and incubated at 37° C. for 2.25 hours. Plates were then removed from the incubator and allowed to cool to RT for 15 minutes. Five microliters of 2.5 nM biotin-NRF2 protein was then added to all wells of the plates and the plates were spun at 500 rpm for 1 minute, followed by incubating at 4° C. for 1.25 hours. The plates were then allowed to warm to RT for 15 minutes, followed by the addition of 10 ul of detection mix (1 nM Streptavidin Eu+W1024 and 5 ug/ml mouse anti-DYKDDDDK IgG conjugated to SureLight APC antibody; both from Columbia Biosciences) to all wells. Plates were spun at 500 rpm for 1 minute, incubated for 1 hour at RT, and read on an Envision plate reader using a 320 nm excitation filter and 615 nm and 665 nm emission filters. Compound response (% inhibition) and potency (pIC50) were calculated based on the ratio of the two emissions (665 nm/615 nm) and then the transformed data was normalized against controls in the assay (control 1=1% DMSO in the presence of NRF2 and Keap1 protein and control 2=1% DMSO in the presence of only the NRF2 protein). Data analysis was handled using the software package Abase XE (Surrey, United Kingdom). The % inhibition values were calculated from the ratio (transformed) data by the equation:
100−(100*(compound response−average control 2)/(average control 1−average control2)).
For calculation of pIC50s, Abase XE used a four parameter equation.
IC50s<10 nM (+++++), IC50s 10-100 nM (++++), IC50s 100 nM-1 uM (+++), IC50s 1-10 uM (++). and IC50s 10 uM-100 uM (+), IC50s>100 uM (−), or were not determined (ND).

T1 sequence (Q14145 whole entry): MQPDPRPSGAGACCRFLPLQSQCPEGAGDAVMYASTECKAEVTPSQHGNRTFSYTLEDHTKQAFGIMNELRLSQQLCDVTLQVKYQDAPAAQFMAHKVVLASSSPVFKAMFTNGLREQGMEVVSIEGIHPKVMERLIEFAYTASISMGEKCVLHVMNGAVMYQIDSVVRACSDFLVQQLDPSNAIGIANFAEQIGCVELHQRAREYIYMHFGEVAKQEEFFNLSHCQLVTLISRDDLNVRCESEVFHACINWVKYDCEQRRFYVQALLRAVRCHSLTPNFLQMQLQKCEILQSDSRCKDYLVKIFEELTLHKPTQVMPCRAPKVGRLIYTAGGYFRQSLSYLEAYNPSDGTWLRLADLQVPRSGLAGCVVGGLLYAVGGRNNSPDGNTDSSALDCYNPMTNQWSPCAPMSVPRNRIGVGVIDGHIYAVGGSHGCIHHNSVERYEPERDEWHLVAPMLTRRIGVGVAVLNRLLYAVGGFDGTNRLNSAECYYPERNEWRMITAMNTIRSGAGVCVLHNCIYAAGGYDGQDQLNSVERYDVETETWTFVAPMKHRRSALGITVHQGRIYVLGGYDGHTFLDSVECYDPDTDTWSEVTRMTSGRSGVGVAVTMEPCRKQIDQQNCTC

One may read the EC50 as the concentration at which the effect is half-maximal. The molecule `CC(c1cccc(-n2ncc(C(=O)O)c2[C@@H]2C[C@H]2c2cn(C)nn2)c1)N1C[C@@H](C)Cc2ccc(C(F)(F)F)cc2S1(=O)=O` (single isomer, unassigned) [Example 6, 1-(3-((R or S)-1-((S)-4-Methyl-1,1-dioxido-8-(trifluoromethyl)-4,5-dihydrobenzo[f][1,2]thiazepin-2(3H)-yl)ethyl)phenyl)-5-((1R,2R)-2-(1-methyl-1H-1,2,3-triazol-4-yl)cyclopropyl)-1H-pyrazole-4-carboxylic acid] came in with an EC50 of 10 to 100 nM. `Cn1cc([C@@H]2C[C@H]2c2c(C(=O)O)cnn2-c2cccc(CN3Cc4ccccc4CC(C)(C)C3)c2)nn1` (racemic) [Example 7] registered an EC50 of 100 to 1000 nM. The value for `Cn1cc([C@@H]2C[C@H]2c2c(C(=O)O)cnn2-c2cccc(Cn3ccnc3CC3CCCCCC3)c2)nn1` (racemic) [Example 23] was 10 to 100 nM. In turn, `CC[C@@H]1CN(Cc2cc(-n3ncc(C(=O)O)c3C3C[C@H]3c3cn(C)nn3)ccc2C)S(=O)(=O)c2ccccc2O1` (stereo partly drawn) [Example 25] came in with an EC50 of 10 to 100 nM. The figure for `COc1ccc(Cl)cc1S(=O)(=O)N(C)Cc1cccc(-n2ncc(C(=O)O)c2[C@@H]2C[C@H]2c2cn(C)nn2)c1` (racemic) [Example 40, 1-(3-((5-chloro-2-methoxy-N-methylphenyl-sulfonamido)-methyl)phenyl)-5-((trans)-2-(1-methyl-1H-1,2,3-triazol-4-yl)cyclo-propyl)-1H-pyrazole-4-carboxylic acid] is 1000 to 10000 nM; for `C[C@@H]1Cc2cc(C(F)(F)F)ccc2S(=O)(=O)N(Cc2cccc(-n3ncc(C(=O)O)c3[C@@H]3C[C@H]3c3cn(C)nn3)c2)C1` (racemic) [Example 18, 1-(3-((4-methyl-1,1-dioxido-7-(trifluoromethyl)-4,5-dihydro-benzo[f][1,2]thiazepin-2(3H)-yl)methyl)phenyl)-5-((trans)-2-(1-methyl-1H-1,2,3-triazol-4-yl)cyclopropyl)-1H-pyrazole-4-carboxylic acid] it is 10 to 100 nM. For `Cn1cc([C@@H]2C[C@H]2c2c(C(=O)O)cnn2-c2cccc(CN3Cc4cc(Br)ccc4OC(C)(C)C3)c2)nn1` (racemic) [Example 13], the half-maximal effective concentration (EC50) lay in the range of 10 to 100 nM. `CCCCCCN(Cc1cccc(-n2ncc(C(=O)O)c2[C@@H]2C[C@H]2c2cn(C)nn2)c1)S(=O)(=O)c1ccccc1Oc1ccccc1` (racemic) [Example 49, 1-(3-((N-hexyl-2-phenoxyphenylsulfonamido)methyl)phenyl)-5-((trans)-2-(1-methyl-1H-1,2,3-triazol-4-yl)cyclopropyl)-1H-pyrazole-4-carboxylic acid] displayed an EC50 of 1000 to 10000 nM.

Consider `CN(Cc1cccc(-n2ncc(C(=O)O)c2[C@@H]2C[C@H]2c2cn(C)nn2)c1)S(=O)(=O)c1cccc(Oc2ccccc2)c1` (racemic) [Example 35, 5-((trans)-2-(1-methyl-1H-1,2,3-triazol-4-yl)cyclo-propyl)-1-(3-((N-methyl-3-phenoxy-phenyl-sulfonamido)-methyl)phenyl)-1H-pyrazole-4-carboxylic acid], for which the EC50 lay within 100 to 1000 nM. For `CC[C@@H]1CN(Cc2cc(-n3ncc(C(=O)O)c3[C@@H]3C[C@H]3c3cn(C)nn3)ccc2C)Cc2ccccc2O1` [Example 28], the EC50 was 1000 to 10000 nM. Regarding `COc1ccccc1S(=O)(=O)N(Cc1cccc(-n2ncc(C(=O)O)c2[C@@H]2C[C@H]2c2cn(C)nn2)c1)C1CC1` (racemic) [Example 53, 1-(3-((N-cyclopropyl-2-methoxyphenylsulfonamido)methyl)phenyl)-5-((trans)-2-(1-methyl-1H-1,2,3-triazol-4-yl)cyclopropyl)-1H-pyrazole-4-carboxylic acid], the EC50 was in the range of 10000 to 100000 nM. The molecule `COc1ccccc1S(=O)(=O)N(C)C1CCc2ccc(-n3ncc(C(=O)O)c3[C@@H]3C[C@H]3c3cn(C)nn3)cc21` (stereo partly drawn) [Example 27, 1-(3-(2-methoxy-N-methylphenylsulfonamido)-2,3-dihydro-1H-inden-5-yl)-5-((1R,2R)-2-(1-methyl-1H-1,2,3-triazol-4-yl)cyclopropyl)-1H-pyrazole-4-carboxylic acid] displayed an EC50 of 10000 to 100000 nM.
